Marks after values point to notes of the source that are not given here.
Experiments:
A431 xenograft tumors [1] = assay: A431 xenograft tumor growth, Cetuximab vs. HC-Y104D and cisplatin; type: in vivo, male nude mice; details: 5 mg/kg cisplatin IV twice per week, day 14
Protocol: Subcutaneous A431 xenograft tumors were established in male nude mice as described above. […] Specifically, the test article(s) were administered on days 0, 4, 7 and 11. Tumor volume (mm^3) was determined on days—1, 4, 7, 11 and 14 as described previously.

A431 xenograft tumors [2] = assay: A431 xenograft tumor growth, Cetuximab and cisplatin combination; type: in vivo, male nude mice; details: day 14
Protocol: Specifically, the test article(s) were administered on days 0, 4, 7, 11, and 14.
Tumor growth, measured as tumor volume (mm^3), was determined on days—1, 4, 7, 11 and 14 using digital calipers and calculation as described in Example 8. Tumor growth inhibition (TGI) for the treatment groups was calculated using the formula: % TGI=[1−(TB−TA)/(CB−CA)]×100; where TB is the average tumor volume (mm^3) in the treatment group at day 14, TA is the average tumor volume (mm^3) in the treatment group the day before the first treatment (day—1), CB is the average tumor volume in the vehicle only control group at day 14, and CA is the average tumor volume in the vehicle only control group the day before the first treatment (day—1) (see, e.g., Teicher B A and Andrews P A: Anticancer Drug Development, Guide: Preclinical Screening, Clinical Trials and Approval, 2nd edition.

## N.N.[Cl][Pt][Cl] [cisplatin]
A431 xenograft tumors [1]
  reduction in tumor growth: about 45%
A431 xenograft tumors [2]; 5 mg/kg cisplatin alone
  tumor growth inhibition (TGI): 34.2%
A431 xenograft tumors [2]; Cisplatin 5 mg/kg ([…]) IV twice per week
  % Tumor Growth Inhibition: 34.2* %
A431 xenograft tumors [2]; Cisplatin […] (0.04 mg/mouse) IV twice per week
  % Tumor Growth Inhibition: 16.7%
